Structures can show the parent of a compound that is named as a salt.
Legend:
dopamine D-1 receptor [1] = molecular target: dopamine D-1 receptor (Rattus norvegicus, UniProt P18901); test: biochemical; conditions: D-1 Ki, rat caudate, [125I]SCH-23982
Description: The compounds compete with the radiolabeled ligand for occupancy of the receptors and the molar potency of each compound was quantified.
The Ki values are inversely proportional to the affinity of the compound for the receptor.

dopamine D-1 receptor [2] = conditions: for Intrinsic Activity (adenylate cyclase assay): dopamine = 100, goldfish retina or rat striatum; for EC50: read-out: EC50 (agonist activity in adenylate cyclase assay), tissue from goldfish retina or rat striatum
Description: In order to determine agonist activity, cell-free tissue homogenates are incubated in an ionic buffer solution containing ATP and the compound being evaluated. The tissue was obtained from either goldfish retina or rat striatum.

dopamine D-2 receptor = dopamine D-2 receptor (Rattus norvegicus, UniProt P61169); test: biochemical; type: binding; conditions: rat caudate, [125I]-p-aminophenylethyl spiroperidol; read-out: D-2 Ki
Description: Homogenized rat caudate was the source of the D-2 receptors. […] The molar affinity of the compound for the receptor binding site was calculated by the same method used for the D-1 receptor assay, assuming a competitive interaction between the compound and the radiolabeled ligand.

Sequence of dopamine D-2 receptor (P61169 whole entry): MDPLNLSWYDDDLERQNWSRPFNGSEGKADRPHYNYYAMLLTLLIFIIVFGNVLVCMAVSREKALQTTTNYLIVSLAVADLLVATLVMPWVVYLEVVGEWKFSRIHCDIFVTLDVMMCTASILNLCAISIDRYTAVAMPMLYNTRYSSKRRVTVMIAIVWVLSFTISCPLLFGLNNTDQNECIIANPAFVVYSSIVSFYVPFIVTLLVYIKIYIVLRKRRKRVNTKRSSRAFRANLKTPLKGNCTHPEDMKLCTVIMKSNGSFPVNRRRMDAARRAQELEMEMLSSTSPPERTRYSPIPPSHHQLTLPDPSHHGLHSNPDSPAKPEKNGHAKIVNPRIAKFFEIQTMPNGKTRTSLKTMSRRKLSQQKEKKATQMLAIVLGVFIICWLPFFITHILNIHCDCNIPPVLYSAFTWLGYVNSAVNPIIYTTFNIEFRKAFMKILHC
Sequence of dopamine D-1 receptor (Rattus norvegicus, UniProt P18901) (P18901 whole entry): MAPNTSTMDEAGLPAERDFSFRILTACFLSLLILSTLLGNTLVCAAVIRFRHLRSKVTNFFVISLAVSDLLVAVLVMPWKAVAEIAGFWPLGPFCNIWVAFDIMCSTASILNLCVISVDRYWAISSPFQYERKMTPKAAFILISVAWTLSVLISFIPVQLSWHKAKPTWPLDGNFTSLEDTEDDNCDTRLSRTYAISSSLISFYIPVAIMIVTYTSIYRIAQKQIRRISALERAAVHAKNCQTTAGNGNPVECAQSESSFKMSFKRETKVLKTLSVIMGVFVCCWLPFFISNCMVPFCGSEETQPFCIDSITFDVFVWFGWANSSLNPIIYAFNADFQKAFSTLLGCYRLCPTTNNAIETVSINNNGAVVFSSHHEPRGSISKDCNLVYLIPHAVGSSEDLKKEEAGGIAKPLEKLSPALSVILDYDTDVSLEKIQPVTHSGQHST

Row | SMILES | Ki (dopamine D-1 receptor [1]) | Intrinsic Activity (adenylate cyclase assay) (dopamine D-1 receptor [2]) | EC50 (dopamine D-1 receptor [2]) | Ki (dopamine D-2 receptor)
1 | CC(=O)NCC[C@H]1Cc2c(ccc(O)c2O)[C@@H](CN)O1 (relative stereo) [Example 172] | 1100 nM | 116 | 220 nM | > 10000 nM
2 | NC[C@@H]1O[C@H](CN2Cc3ccccc3C2=O)Cc2c1ccc(O)c2O (relative stereo) [Example 87] | 11000 nM | 54 | 50 nM | 700 nM
3 | NCC1=CC(c2ccc3ccccc3c2)Cc2c1ccc(O)c2O (centres unmarked) [Example 40] | 5000 nM | 86 | 1100 nM | 27000 nM
4 | NC[C@H]1O[C@@H](CN2CCOCC2)Cc2c1ccc(O)c2O (relative stereo) [Example 157] | 1300 nM | 111 | 520 nM | 16000 nM
5 | Oc1ccc2c(c1O)CC(CC1CCCC1)C1=C2CNCC1 (centres unmarked) [Example 209] | 490 nM | 25 |  | 2800 nM
6 | CNC[C@@H]1O[C@H](C23CC4CC(CC(C4)C2)C3)Cc2c1ccc(O)c2O [Example 134] | 35 nM | 81 | 4 nM | 1000 nM
7 | CCCC(=O)Oc1ccc2c(c1OC(=O)CCC)CC(c1ccccc1)C=C2CN (centres unmarked) [Example 17] | 800 nM | 42 | 2800 nM | > 10000 nM
8 | CNC[C@H]1O[C@@H](c2ccc(F)cc2)Cc2c1ccc(O)c2O (relative stereo) [Example 136] | 100 nM | 133 | 5 nM | 2500 nM
9 | NCC1=CC(c2ccc(O)cc2)Cc2c1ccc(O)c2O (centres unmarked) [Example 39] | 1400 nM | 84 | 50 nM | > 10000 nM
10 | NC[C@H]1O[C@@H](CO)Cc2c1ccc(O)c2O (relative stereo) [Example 155, [1,3-cis]1-Aminomethyl-3,4-dihydro-5,6-dihydroxy-3-hydroxymethyl-1H-2-benzopyran Hydrochloride] | 2600 nM | 95 | 150 nM | 8200 nM
11 | Cl.NCc1cc(-c2ccccc2)cc2c(O)c(O)ccc12 [Example 46, 1-Aminomethyl-5,6-dihydroxy-3-phenylnaphthalene Hydrochloride] | 1700 nM | 69 | 220 nM | > 10000 nM
12 | NC[C@@H]1O[C@H](CCc2ccccc2)Cc2c1ccc(O)c2O (relative stereo) [Example 61] | 290 nM | 76 | 6 nM | 1300 nM
13 | Oc1ccc2c(c1O)CC1(CCCCCC1)C1=C2CNCC1 [Example 206] | 26 nM | 79 | 68 nM | 1600 nM
14 | CC(C)(C)C(=O)NC[C@H]1Cc2c(ccc(O)c2O)[C@@H](CN)O1 (relative stereo) [Example 166] | 4800 nM | 97 | 180 nM | 2400 nM
15 | NC[C@H]1O[C@@H](CCO)Cc2c1ccc(O)c2O (relative stereo) [Example 160] | 1300 nM | 136 | 140 nM | 1700 nM
16 | C=CCNC[C@@H]1O[C@H](C(C)(C)C)Cc2c1ccc(O)c2O [Example 129] | 2100 nM | 97 | 1000 nM | 3100 nM
17 | Oc1ccc2c(c1O)C[C@H](C1CCCCC1)O[C@@H]2CNC1CC1 (relative stereo) [Example 114] | 420 nM | 60 | 60 nM | 900 nM
18 | CCOC(=O)Oc1ccc2c(c1OC(=O)OCC)CC(c1ccccc1)C=C2CN (centres unmarked) [Example 29] | 6000 nM | 54 | 1000 nM | > 10000 nM
19 | NC[C@H]1O[C@@H](c2ccc(C(F)(F)F)cc2)Cc2c1ccc(O)c2O (relative stereo) [Example 98] | 220 nM | 108 | 18 nM | 1900 nM
20 | CCCC[C@H]1Cc2c(ccc(O)c2O)[C@@H](CNC)O1 (relative stereo) [Example 135] | 180 nM | 136 | 7 nM | 1600 nM
21 | CNCC1OC2(CCOCC2)Cc2c1ccc(O)c2O (centres unmarked) [Example 143] | 1200 nM | 94 | 1100 nM | > 10000 nM
22 | Oc1ccc2c(c1O)C[C@@H](c1ccccc1)C[C@H]2[C@H]1CCCN1 (relative stereo) [Example 180, [1,3-cis]5,6-Dihydroxy-3-phenyl-1-(2'-pyrrolidinyl)-1,2,3,4-tetrahydronaphthalene Hydrobromide] | 1100 nM | 71 | 80 nM | 4700 nM
23 | Oc1ccc2c(c1O)C[C@H](c1ccccc1)O[C@@H]2[C@H]1CCCN1 [Example 127] | 1300 nM | 55 | 520 nM | > 10000 nM

Row | SMILES | Ki (dopamine D-1 receptor [1]) | Intrinsic Activity (adenylate cyclase assay) (dopamine D-1 receptor [2]) | EC50 (dopamine D-1 receptor [2]) | Ki (dopamine D-2 receptor)
24 | NCC1OC2(CCCCC2)Cc2c1ccc(O)c2O (centres unmarked) [Example 52] | 900 nM | 65 | 71 nM | 6200 nM
25 | NCC1CC2(CCCCC2)Cc2c1ccc(O)c2O (centres unmarked) [Example 194] | 4000 nM | 82 | 58 nM | > 10000 nM
26 | Oc1ccc2c(c1O)C[C@H](C1CCCCC1)O[C@@H]2CN1CCCC1 (relative stereo) [Example 115] | 12000 nM | 68 | 2200 nM | 3000 nM
27 | NCC1=CC2(CCCCCCC2)Cc2c1ccc(O)c2O [Example 191] | 1100 nM | 58 | 1500 nM | > 10000 nM
28 | C#CCNC[C@H]1O[C@@H](C2CCCCC2)Cc2c1ccc(O)c2O (relative stereo) [Example 118] | 2500 nM | 87 | 56 nM | 6700 nM
29 | CC(C)=CCCC(C)[C@@H]1Cc2c(ccc(O)c2O)[C@H](CN)O1 (some centres unmarked) [Example 74] | 100 nM | 105 | 840 nM | 2000 nM
30 | CNCC1OC2(CCCCCC2)Cc2c1ccc(O)c2O (centres unmarked) [Example 141] | 120 nM | 97 | 80 nM | 2600 nM
31 | CNC[C@H]1O[C@@H](CCN)Cc2c1ccc(O)c2O (relative stereo) [Example 173] | 3600 nM | 63 | 390 nM | 14000 nM
32 | CC(=O)NC[C@H]1Cc2c(ccc(O)c2O)[C@@H](CN)O1 (relative stereo) [Example 161] | 1300 nM | 58 | 450 nM | 170 nM
33 | CCCC[C@@H]1Cc2c(ccc(O)c2O)[C@H](CN)O1 (relative stereo) [Example 79] | 730 nM | 151 | 7 nM | 920 nM
34 | NCC1CC2(CCCCCCCCC2)Cc2c1ccc(O)c2O (centres unmarked) [Example 237] | 6500 nM | 34 | 1900 nM | > 10000 nM
35 | CNC[C@H]1O[C@@H](Cc2ccc(OC)cc2)Cc2c1ccc(O)c2O (relative stereo) [Example 137] | 2900 nM | 93 | 1000 nM | 550 nM
36 | CNCC1OC2(CCCCCCC2)Cc2c1ccc(O)c2O (centres unmarked) [Example 142] | 190 nM | 71 | 87 nM | > 10000 nM
37 | NCC1OC2(CCCCCCC2)Cc2c1ccc(O)c2O (centres unmarked) [Example 94] | 84 nM | 110 | 71 nM | > 10000 nM
38 | C=CCC[C@@H]1Cc2c(ccc(O)c2O)[C@H](CN)O1 (relative stereo) [Example 73] | 64 nM | 138 | 160 nM | 34000 nM
39 | CC(C)(C)C1C=C(CN)c2ccc(O)c(O)c2C1 (centres unmarked) [Example 190] | 330 nM | 92 | 110 nM | 6300 nM
40 | NCC[C@H]1Cc2c(ccc(O)c2O)[C@@H](CN)O1 (relative stereo) [Example 159] | 3100 nM | 129 | 150 nM | 3700 nM
41 | CNCC1OC2(CCCCCCCC2)Cc2c1ccc(O)c2O (centres unmarked) [Example 224] | 230 nM | 64 | 240 nM | 2300 nM
42 | CNC[C@H]1O[C@@H](CCO)Cc2c1ccc(O)c2O (relative stereo) [Example 174] | 1200 nM | 90 | 65 nM | 3500 nM
43 | NC[C@@H]1O[C@H](COc2ccc(Br)cc2)Cc2c1ccc(O)c2O (relative stereo) [Example 58] | 260 nM | 63 | 19 nM | 1200 nM
44 | CN1CCC2=C(C1)c1ccc(O)c(O)c1CC21CCCC1 [Example 211] | 580 nM | 38 | 63 nM | > 10000 nM
45 | NC[C@H]1C[C@@H](c2cccc(O)c2)Cc2c1ccc(O)c2O (relative stereo) [Example 42] | 61 nM | 98 | 6 nM | 3900 nM

— patent US5621133A (priority 1995, dated 1997)
